Experimental data taken from ChEMBL document CHEMBL1153970, “Characteristic of neuraminidase inhibitory xanthones from Cudrania tricuspidata” (Bioorg Med Chem, 2009).
“And” between values parts separate entries of the source, which are not always exact repeats. Equal values may be shown once.

Experiments:
[1] = target: T1, Sialidase (Clostridium perfringens) (UniProt P10481); experiment: (§1) Inhibition of Clostridium perfringens neuraminidase by fluorimetry
T1 sequence (whole entry): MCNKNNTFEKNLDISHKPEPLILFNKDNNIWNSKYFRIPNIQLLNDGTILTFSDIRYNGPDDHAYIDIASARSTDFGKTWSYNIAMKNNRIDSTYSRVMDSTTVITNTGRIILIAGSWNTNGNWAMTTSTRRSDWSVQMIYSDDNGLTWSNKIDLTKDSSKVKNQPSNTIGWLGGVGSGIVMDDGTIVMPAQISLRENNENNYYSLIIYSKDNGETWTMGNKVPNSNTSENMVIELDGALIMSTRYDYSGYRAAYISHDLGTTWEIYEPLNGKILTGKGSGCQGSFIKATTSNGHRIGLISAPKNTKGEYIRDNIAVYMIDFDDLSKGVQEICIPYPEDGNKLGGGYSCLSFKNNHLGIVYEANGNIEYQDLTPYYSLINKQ

Sialidase [2] = target: T2, Sialidase (Clostridium perfringens, UniProt P10481); experiment: as §1
T2 sequence (P10481 whole entry): T1 sequence (whole entry)

Sialidase [3] = target: T2, Sialidase; experiment: Apparent binding affinity at Clostridium perfringens neuraminidase by fluorimetry; settings: read-out: Ki(app)
Sialidase [4] = target: T2, Sialidase; experiment: Competitive inhibition of Clostridium perfringens neuraminidase by Lineweaver-Burke plot and Dixon plot
[5] = target: T1, Sialidase (Clostridium perfringens); experiment: Inhibition of Clostridium perfringens neuraminidase at 200 uM by fluorimetry

| Compound | Activity [1] | IC50 (Sialidase [2]) | Ki (Sialidase [3]) | Ki (Sialidase [4]) | Activity [5] | inhibition [5] |
| --- | --- | --- | --- | --- | --- | --- |
| C=CC(C)(C)c1c(O)cc2oc3cc(O)c(O)c(CC=C(C)C)c3c(=O)c2c1O | Dose-dependent effect | 80 nM | 127 nM | 58 nM |  |  |
| C=CC(C)(C)c1c(O)cc(O)c2c(=O)c3cc(O)c4c(c3oc12)C=CC(C)(C)O4 |  |  |  |  | Dose-dependent effect | 30% |
| O=c1cc(-c2ccc(O)cc2)oc2cc(O)cc(O)c12 [APIGENIN] |  | 17400 nM |  |  |  |  |
| C=CC(C)(C)c1c(O)cc(O)c2c(=O)c3c(CC=C(C)C)c(O)c(O)cc3oc12 [CUDRATRICUSXANTHONE A] | Dose-dependent effect | 245 nM | 214 nM | 136 nM |  |  |
| C=CC(C)(C)c1c(OC)cc(O)c2c(=O)c3c(CC=C(C)C)c(O)c(O)cc3oc12 [CUDRAXANTHONE D] | Dose-dependent effect | 278 nM and 1270 nM | 436 nM and 2230 nM | 143 nM and 950 nM |  |  |
| C=CC(C)(C)c1c(O)cc2oc3c(CC=C(C)C)c(O)c(O)cc3c(=O)c2c1O [CUDRAXANTHONE L] | Dose-dependent effect | 228 nM | 568 nM | 138 nM |  |  |
| CC(C)=CCc1c(O)c(O)cc2c(=O)c3c(O)c4c(cc3oc12)OC(C)C4(C)C (centres undefined) [CUDRAXANTHONE M] | Dose-dependent effect | 186 nM | 510 nM | 98 nM |  |  |
| C=CC(C)(C)c1c2c(c(O)c3c(=O)c4ccc(O)c(O)c4oc13)C=CC(C)(C)O2 [MACLURAXANTHONE] | Dose-dependent effect | 186 nM | 477 nM | 103 nM |  |  |
| O=c1c2cc(O)c(O)cc2oc2cc(O)c([C@@H]3O[C@H](CO)[C@@H](O)[C@H](O)[C@H]3O)c(O)c12 [MANGIFERIN] |  | 16200 nM |  |  |  |  |
| O=c1c(O)c(-c2ccc(O)c(O)c2)oc2cc(O)cc(O)c12 [QUERCETIN] |  | 2700 nM |  |  |  |  |
